Values after ≈ are worked out from the molar mass of the structure shown.

The test system of the experiment is NSCLC. Description: Cytotoxicity against human NSCLC cells by MTT assay. The class given is functional, cell-based. For orientation: Formazan colour is commonly taken as a measure of viable cells.
By IC50 is commonly meant the concentration that gives 50% inhibition. A lower IC50 goes with greater potency. As for `CC1=C[C@H](c2c(O)cc(O)c(C(=O)CCc3ccccc3)c2O)[C@H](C(C)C)CC1` [LINDERATIN], half-maximal inhibition (IC50) required 3.8 µg/mL (≈ 9.63 µM).
The result for `CC1=C[C@H](c2c(O)c(C(=O)CCc3ccccc3)c(O)c([C@H]3C=C(C)CC[C@H]3C(C)C)c2O)[C@H](C(C)C)CC1` [NEOLINDERATIN] reads above 30 µg/mL; that for `CC1=C[C@H](c2c(O)c(C(=O)CCc3ccccc3)c(O)c([C@H]3C=C(C)CC[C@@H]3C(C)C)c2O)[C@@H](C(C)C)CC1`, above 30 µg/mL.
The result for `CC1=C[C@H](c2c(O)cc(O)c(C(=O)CCc3ccccc3)c2O)[C@@H](C(C)C)CC1` reads above 30 µg/mL.

The values above are taken from ChEMBL document CHEMBL1158322, “New Terpenylated Dihydrochalcone Derivatives Isolated from Mitrella kentii” (J Nat Prod, 1997).
